# “Also recorded” adds a separate entry of the source. Structures can show the parent of a compound that is named as a salt. Where two headings read alike, the source gives them in different places.
# Columns and labels:
# [1] = tested on: various other targets (Table S4); experiment: broad screen, radioligand binding competition assays (Eurofins), summary; settings: high nanomolar or micromolar ranges
# Glucocorticoid receptor = molecular target: T1, Glucocorticoid receptor (Homo sapiens, UniProt P04150); experiment: radioligand competition binding, [3H]Dexamethasone
# T1 construct: Eurofins
# NMDA receptor (Glycine) = molecular target: T2, NMDA receptor (Glycine) (Rattus norvegicus, UniProt P35439); experiment: radioligand competition binding, [3H]MDL 105,519
# T2 construct: Eurofins
# Cannabinoid receptor CB1 = molecular target: T3, Cannabinoid receptor CB1 (Homo sapiens, UniProt P21554); experiment: radioligand competition binding, [3H]SR141716A
# T3 construct: Eurofins
# [2] = molecular target: T4, D1 (dopaminergic receptor) (Homo sapiens, UniProt P21728); experiment: radioligand competition binding, [3H]SCH 23390; settings: read-out: % inhibition of the specific radioligand binding
# T4 construct: Eurofins
# Bradykinin receptor B2 = molecular target: T5, Bradykinin receptor B2 (Homo sapiens, UniProt P30411); experiment: radioligand competition binding, [3H]Bradykinin
# T5 construct: Eurofins
# Opioid receptor κ = molecular target: T6, Opioid receptor κ (Homo sapiens, UniProt P41145); experiment: radioligand competition binding, [3H]Diprenorphine (first line)
# T6 construct: Eurofins
# [3] = molecular target: Ca2+ Channel L-Type, (Benzothiazepine) (Rattus norvegicus, UniProt P22002); experiment: biochemical; settings: read-out: % inhibition of the specific radioligand binding
# [4] = molecular target: T7, Platelet Activating Factor Receptor (Homo sapiens, UniProt P25105); experiment: radioligand competition binding, [3H]PAF
# T7 construct: Eurofins
# Androgen receptor (NHR) [5] = molecular target: T8, Androgen receptor (NHR) (Homo sapiens, UniProt P10275); settings: estimated from the % inhibition data
# human 5-HT2CR [6] = molecular target: T9, human 5-HT2CR (Homo sapiens, UniProt P28335); experiment: Ca2+/Fluo-4 assay, agonist mode, stable 5-HT2CR-HEK293 cells
# [7] = molecular target: T10, α1A (adrenergic receptor) (Homo sapiens, UniProt P35348); experiment: radioligand competition binding, [3H]Prazosin
# T10 construct: Eurofins
# [8] = molecular target: T11, Epidermal Growth Factor receptor (Homo sapiens, UniProt P00533); experiment: radioligand competition binding, [125I]EGF
# T11 construct: Eurofins
# Tachykinin receptor NK3 = molecular target: T12, Tachykinin receptor NK3 (Homo sapiens, UniProt P29371); experiment: radioligand competition binding, [125I]MePhe7-Neurokinin B
# T12 construct: Eurofins (contract laboratory)
# SERT = molecular target: T13, SERT (Homo sapiens, UniProt P31645); experiment: radioligand competition binding, [3H]imipramine
# T13 construct: Eurofins
# Opioid receptor δ = molecular target: T14, Opioid receptor δ (Homo sapiens, UniProt P41143); experiment: radioligand competition binding, [3H] Naltrindole
# T14 construct: Eurofins
# MDR1 (P-gp) = experiment: MDR1-MDCK II permeability assay; type: in vitro ADME; settings: dog, MDCK-MDR1, pH 7.4
# MDR1 = experiment: MDR1-MDCK II permeability assay; type: in vitro ADME; settings: dog, MDCK-MDR1, pH 7.4, Table S6
# Androgen receptor (NHR) [9] = molecular target: T8, Androgen receptor (NHR); experiment: biochemical; settings: read-out: % inhibition of the specific radioligand binding
# [10] = molecular target: T15, Nicotinic acetylcholine receptor (muscle-type) (Homo sapiens, UniProt P02708+P07510+Q07001); experiment: radioligand competition binding, [125I]α-Bungarotoxin
# T15 construct: Eurofins
# K+ Channel (hERG) = molecular target: T16, K+ Channel (hERG) (Homo sapiens, UniProt Q12809); experiment: radioligand competition binding, [3H]Astemizole; settings: estimated from the % inhibition data
# T16 construct: Eurofins
# hERG K+ channel = molecular target: T17, hERG K+ channel (Homo sapiens, UniProt Q12809); experiment: radioligand competition binding, [3H]Astemizole; settings: human, probe [3H]Astemizole; read-out: % inhibition of the specific radioligand binding
# T17 construct: Eurofins
# [11] = molecular target: T18, Neuropeptide Y receptor Y2 (Homo sapiens, UniProt P49146); experiment: radioligand competition binding, [125I]Peptide YY
# T18 construct: Eurofins
# 5-HT4e = molecular target: T19, 5-HT4e (Homo sapiens, UniProt Q13639); experiment: radioligand competition binding, [3H]GR 113808
# T19 construct: Eurofins
# Melatonin receptor MT1 = molecular target: T20, Melatonin receptor MT1 (Homo sapiens, UniProt P48039); experiment: radioligand competition binding, [125I]2-Iodomelatonin
# T20 construct: Eurofins
# Imidazoline receptor I2 = experiment: radioligand competition binding, [3H]Idazoxan; design: species or system rat
# Tachykinin receptor NK1 = molecular target: T21, Tachykinin receptor NK1 (Homo sapiens, UniProt P25103); experiment: radioligand competition binding, [3H]Substance P
# T21 construct: Eurofins (contract laboratory)
# Endothelin receptor ETB = molecular target: T22, Endothelin receptor ETB (Homo sapiens, UniProt P24530); experiment: radioligand competition binding, [125I]Endothelin-1
# T22 construct: Eurofins
# 5-HT6 = molecular target: T23, 5-HT6 (Homo sapiens, UniProt P50406); experiment: radioligand competition binding, [3H]LSD
# T23 construct: Eurofins
# β2 (adrenergic receptor) = molecular target: T24, β2 (adrenergic receptor) (Homo sapiens, UniProt P07550); experiment: radioligand competition binding, [3H](-)CGP 12177
# T24 construct: Eurofins
# [12] = molecular target: T25, D2S (dopaminergic receptor) (Homo sapiens, UniProt P14416); experiment: radioligand competition binding, [3H]7-OH-DPAT; settings: read-out: % inhibition of the specific radioligand binding
# T25 construct: Eurofins
# GABA transporter = GABA transporter (Rattus norvegicus, UniProt P23978); experiment: biochemical; settings: read-out: % inhibition of the specific radioligand binding
# human 5-HT2CR [13] = molecular target: T9, human 5-HT2CR; experiment: Ca2+/Fluo-4 assay, antagonist mode (5-HT EC90 as agonist), stable 5-HT2CR-HEK293 cells; settings: 5-HT2CR pIC50 ± S.E.M., Table S2
# NMDA receptor (PCP) = experiment: radioligand competition binding, [3H]TCP; design: species or system rat
# [14] = estimated from the % inhibition data
# [15] = read-out: % inhibition of the specific radioligand binding
smiles,measurement,setting,value
"COc1cc(C(F)(F)F)c(OC)cc1[C@@H]1CCCNC1 [(S)-11, 3-(2,5-Dimethoxy-4-(trifluoromethyl)phenyl)piperidine Hydrochloride]",binding affinities at the respective targets of the broad screen,[1],> 100 nM
same,IC50,Glucocorticoid receptor; [14],> 10 µM
same,inhibition at 10 µM,Glucocorticoid receptor; [15],11%
same,IC50,NMDA receptor (Glycine); [14],> 10 µM
same,inhibition at 10 µM,NMDA receptor (Glycine); [15],-20%
same,IC50,Cannabinoid receptor CB1; [14],> 10 µM
same,inhibition at 10 µM,Cannabinoid receptor CB1; [15],14%
same,inhibition at 10 µM,[2],30%
same,IC50,Bradykinin receptor B2; [14],> 10 µM
same,inhibition at 10 µM,Bradykinin receptor B2; [15],18%
same,IC50,Opioid receptor κ; [14],> 10 µM
same,inhibition at 10 µM,Opioid receptor κ; [15],18%
same,inhibition at 10 µM,[3],66%
same,IC50,[4]; [14],> 10 µM
same,inhibition at 10 µM,[4]; [15],-11%
same,IC50,Androgen receptor (NHR) [5],> 10 µM
same,agonist activity at 5-HT2CR (in words),human 5-HT2CR [6],negligible agonist efficacy; also recorded: absence of measurable agonist efficacy
same,EC50,"human 5-HT2CR [6]; 5-HT2CR EC50 (nM), Table 1, at least 3 independent experiments",> 50000 nM
same,agonist activity at 5-HT2CR (in words),human 5-HT2CR [6]; listed as 11eu,did not elicit measurable agonist activity
same,IC50,[7]; [14],> 10 µM
same,inhibition at 10 µM,[7]; [15],32%
same,IC50,[8]; [14],> 10 µM
same,inhibition at 10 µM,[8]; [15],-18%
same,IC50,Tachykinin receptor NK3; [14],> 10 µM
same,inhibition at 10 µM,Tachykinin receptor NK3; [15],14%
same,IC50,SERT; [14],> 10 µM
same,inhibition at 10 µM,SERT; [15],22%
same,IC50,Opioid receptor δ; [14],> 10 µM
same,inhibition at 10 µM,Opioid receptor δ; [15],18%
same,Papp A→B at […],MDR1 (P-gp),18.4 ×10⁻⁶ cm/s
same,Papp B→A at […],MDR1 (P-gp),17.3 ×10⁻⁶ cm/s
same,"Papp A→B at […], 2 µM",MDR1 (P-gp); Figure 6,18.6 ×10⁻⁶ cm/s
same,"Papp B→A at […], 2 µM",MDR1 (P-gp); Figure 6,17.3 ×10⁻⁶ cm/s
same,recovery at […],MDR1; read-out: Mean Recovery A to B,70%
same,recovery at […],MDR1; read-out: Mean Recovery B to A,92%
same,inhibition at 10 µM,Androgen receptor (NHR) [9],1%
same,IC50,[10],> 10 µM
same,inhibition at 10 µM,[10]; [15],3%
same,IC50,K+ Channel (hERG),> 10 µM
same,inhibition at 10 µM,hERG K+ channel,32%
same,IC50,[11]; [14],> 10 µM
same,inhibition at 10 µM,[11]; [15],3%
same,IC50,5-HT4e; [14],> 10 µM
same,inhibition at 10 µM,5-HT4e; [15],30%
same,IC50,Melatonin receptor MT1; [14],> 10 µM
same,inhibition at 10 µM,Melatonin receptor MT1; [15],7%
same,% inhibition of the specific radioligand binding,"Imidazoline receptor I2; (S)-11 10 μM, n=1",17%
same,IC50,Imidazoline receptor I2; [14],> 10 µM
same,IC50,Tachykinin receptor NK1; [14],> 10 µM
same,inhibition at 10 µM,Tachykinin receptor NK1; [15],31%
same,IC50,Endothelin receptor ETB; [14],> 10 µM
same,inhibition at 10 µM,Endothelin receptor ETB; [15],-6%
same,IC50,5-HT6; [14],1 to 10 µM
same,inhibition at 1 µM,5-HT6; [15],24%
same,inhibition at 10 µM,5-HT6; [15],77%
same,IC50,β2 (adrenergic receptor); [14],~10 µM
same,inhibition at 1 µM,β2 (adrenergic receptor); [15],2%
same,inhibition at 10 µM,β2 (adrenergic receptor); [15],55%
same,inhibition at 10 µM,[12],59%
same,inhibition at 10 µM,GABA transporter,29%
same,IC50,human 5-HT2CR [13],0.316 µM
same,% inhibition of the specific radioligand binding,"NMDA receptor (PCP); (S)-11 10 μM, n=1",4%
same,IC50,NMDA receptor (PCP); [14],> 10 µM
